How the values were obtained:
[1] = molecular target: T1, Lysosomal acid glucosylceramidase (Homo sapiens, UniProt P04062); assay: GCase IC50 Assay
T1 sequence (P04062 whole entry): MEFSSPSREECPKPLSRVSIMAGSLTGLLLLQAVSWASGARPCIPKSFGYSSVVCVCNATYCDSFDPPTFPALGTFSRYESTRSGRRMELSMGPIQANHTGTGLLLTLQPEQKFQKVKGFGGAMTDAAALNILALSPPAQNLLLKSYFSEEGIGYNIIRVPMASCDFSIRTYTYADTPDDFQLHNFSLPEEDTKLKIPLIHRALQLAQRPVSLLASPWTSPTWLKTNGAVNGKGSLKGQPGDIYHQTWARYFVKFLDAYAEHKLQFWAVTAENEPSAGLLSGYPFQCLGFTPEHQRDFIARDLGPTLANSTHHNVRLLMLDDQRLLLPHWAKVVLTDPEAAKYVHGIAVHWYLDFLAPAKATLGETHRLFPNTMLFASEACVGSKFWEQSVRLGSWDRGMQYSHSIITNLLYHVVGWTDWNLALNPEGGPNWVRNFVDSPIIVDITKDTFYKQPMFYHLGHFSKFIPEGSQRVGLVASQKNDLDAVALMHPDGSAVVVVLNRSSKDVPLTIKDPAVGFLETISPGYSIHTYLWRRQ

[2] = molecular target: T1, Lysosomal acid glucosylceramidase; assay: GCase Ki Assay; details: pH 5.2
Prunasin hydrolase = molecular target: T2, Prunasin hydrolase (Prunus dulcis, UniProt H9ZGE1); assay: Inhibition Assay Against Commercial Glycosidases; details: 37 °C
T2 sequence (H9ZGE1 whole entry): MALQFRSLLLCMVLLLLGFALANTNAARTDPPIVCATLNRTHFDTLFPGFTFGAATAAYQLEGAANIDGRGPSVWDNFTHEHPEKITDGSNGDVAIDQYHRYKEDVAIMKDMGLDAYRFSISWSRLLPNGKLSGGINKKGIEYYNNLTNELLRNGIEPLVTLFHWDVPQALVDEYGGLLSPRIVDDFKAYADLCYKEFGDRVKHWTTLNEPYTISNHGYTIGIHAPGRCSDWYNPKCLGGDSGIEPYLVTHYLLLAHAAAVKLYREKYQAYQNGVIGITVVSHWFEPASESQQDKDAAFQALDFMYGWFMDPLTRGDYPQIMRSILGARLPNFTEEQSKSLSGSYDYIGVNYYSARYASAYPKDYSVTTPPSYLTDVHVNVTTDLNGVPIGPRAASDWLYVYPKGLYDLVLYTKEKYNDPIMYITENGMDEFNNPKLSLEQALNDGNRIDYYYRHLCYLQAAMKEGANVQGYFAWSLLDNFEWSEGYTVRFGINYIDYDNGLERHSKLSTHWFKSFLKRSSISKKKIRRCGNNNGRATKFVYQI
Experimental: (§1) In a 96-well plates, 10µL of commercial enzyme solutions without (control) or with 20µL of inhibitor were incubated at 37°C for 5 min. After addition of 20µL of substrate solution, incubations were prolonged for different time periods: 10 min for β-glucosidase (almond), 5 min for α-glucosidase (saccharomyces cerevisiae) and 8 min for β-galactosidase (bovine liver) and α-galactosidase (green coffee beans) and stopped by addition of 150µL of glycine/NaOH buffer (100mM, pH 10.6). The amount of 4-MU formed was determined at 355nm (excitation) and 460nm (emission). For β-glucosidase (almond), the activity was determined with 4-MU-β-D-Glu (1mM) in sodium acetate buffer (100 mM, pH 5.2). For α-glucosidase (saccharomyces cerevisiae), the activity was determined with4-methylumbelliferyl-α-D-glucopyranoside (4-MU-α-D-Glu, 1 mM) in sodium phosphate buffer (100 mM, pH 7.2). For β-galactosidase (bovine liver), the activity was determined with 4-me

Alpha-galactosidase = Alpha-galactosidase (Coffea arabica, UniProt Q42656); assay: Inhibition Assay Against Commercial Glycosidases; details: 37 °C
Experimental: as §1

Beta-galactosidase = molecular target: T3, Beta-galactosidase (Bos taurus, UniProt Q58D55); assay: Inhibition Assay Against Commercial Glycosidases; details: 37 °C
T3 sequence (Q58D55 whole entry): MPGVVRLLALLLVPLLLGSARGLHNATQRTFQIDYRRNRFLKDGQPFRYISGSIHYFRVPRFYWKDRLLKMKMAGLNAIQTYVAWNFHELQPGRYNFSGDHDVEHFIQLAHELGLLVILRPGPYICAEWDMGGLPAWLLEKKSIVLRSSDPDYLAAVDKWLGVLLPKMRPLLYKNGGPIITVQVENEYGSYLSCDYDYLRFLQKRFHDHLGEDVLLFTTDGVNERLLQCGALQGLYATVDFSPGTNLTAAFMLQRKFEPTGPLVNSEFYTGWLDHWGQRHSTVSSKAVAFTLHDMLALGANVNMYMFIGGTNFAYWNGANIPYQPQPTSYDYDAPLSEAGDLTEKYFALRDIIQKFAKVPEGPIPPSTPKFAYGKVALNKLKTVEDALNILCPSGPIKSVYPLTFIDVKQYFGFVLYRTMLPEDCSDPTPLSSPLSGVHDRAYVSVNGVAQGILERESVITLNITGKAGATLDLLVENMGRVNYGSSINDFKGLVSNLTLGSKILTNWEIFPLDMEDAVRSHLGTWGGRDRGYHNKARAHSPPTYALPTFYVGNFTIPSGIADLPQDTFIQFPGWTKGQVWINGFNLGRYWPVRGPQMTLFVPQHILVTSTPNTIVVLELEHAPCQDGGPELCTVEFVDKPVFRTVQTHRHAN
Experimental: as §1

Alpha-glucosidase MAL12 = Alpha-glucosidase MAL12 (Saccharomyces cerevisiae (strain ATCC 204508 / S288c), UniProt P53341); assay: Inhibition Assay Against Commercial Glycosidases; details: 37 °C
Experimental: as §1

Chain of Alpha-galactosidase (Q42656 whole entry): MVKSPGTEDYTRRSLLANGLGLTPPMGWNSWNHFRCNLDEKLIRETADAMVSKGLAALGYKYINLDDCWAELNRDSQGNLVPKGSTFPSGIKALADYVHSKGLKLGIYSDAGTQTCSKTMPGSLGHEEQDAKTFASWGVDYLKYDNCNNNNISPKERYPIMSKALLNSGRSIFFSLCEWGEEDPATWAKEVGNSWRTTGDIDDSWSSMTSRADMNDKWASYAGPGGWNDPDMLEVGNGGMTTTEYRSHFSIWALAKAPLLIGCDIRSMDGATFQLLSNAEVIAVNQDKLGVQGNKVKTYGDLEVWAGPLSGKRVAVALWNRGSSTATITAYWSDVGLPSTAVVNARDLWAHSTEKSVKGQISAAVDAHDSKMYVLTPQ
Chain of Alpha-glucosidase MAL12 (P53341 whole entry): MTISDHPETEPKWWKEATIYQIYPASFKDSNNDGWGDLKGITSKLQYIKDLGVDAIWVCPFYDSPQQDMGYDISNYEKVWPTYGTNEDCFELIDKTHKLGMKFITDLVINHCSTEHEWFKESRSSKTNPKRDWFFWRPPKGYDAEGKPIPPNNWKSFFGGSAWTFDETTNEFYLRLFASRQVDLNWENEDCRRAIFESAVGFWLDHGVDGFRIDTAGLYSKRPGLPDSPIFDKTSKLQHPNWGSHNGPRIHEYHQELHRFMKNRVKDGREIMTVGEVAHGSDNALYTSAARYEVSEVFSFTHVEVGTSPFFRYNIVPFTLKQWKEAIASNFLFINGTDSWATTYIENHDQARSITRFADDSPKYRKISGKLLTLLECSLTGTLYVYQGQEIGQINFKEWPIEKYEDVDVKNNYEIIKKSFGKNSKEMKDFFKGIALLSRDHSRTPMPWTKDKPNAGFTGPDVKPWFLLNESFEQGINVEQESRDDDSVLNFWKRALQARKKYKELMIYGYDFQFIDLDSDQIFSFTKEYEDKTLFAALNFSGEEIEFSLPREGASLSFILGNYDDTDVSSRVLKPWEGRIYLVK

Compound	IC50 ([1]; pH 5.2) [nM]	IC50 ([1]; pH 7) [nM]	Ki [2] [nM]	IC50 (Prunasin hydrolase) [nM]	IC50 (Alpha-galactosidase) [nM]	IC50 (Beta-galactosidase) [nM]	IC50 (Alpha-glucosidase MAL12) [nM]
CCCCCCCCc1cn2c(n1)C(O)C(O)C(O)C2CO (centres undefined) [5-(hydroxymethyl)-2-octyl-5H,6H,7H,8H-imidazo[1,2-a]pyridine-6,7,8-triol (Compound 4)]	8.39	5.05	5.38	117	12500	37	970
CC(C)(CCCc1cn2c(n1)C(O)C(O)C(O)C2CO)C(=O)Nc1ccccc1 (centres undefined) [2,2-dimethyl-N-phenyl-5-[6,7,8-trihydroxy-5-(hydroxymethyl)-5H,6H,7H,8H-imidazo[1,2-a]pyridin-2-yl]pentanamide (Compound 11)]	12	11.5	18.9	910	4710	7830	12800
CCCCCCCCCN1C[C@H](O)[C@@H](O)[C@H](O)[C@H]1CO				95900	9490		> 100000
O=C(CCCc1cn2c(n1)C(O)C(O)C(O)C2CO)Nc1ccccc1 (centres undefined) [N-phenyl-4-[6,7,8-trihydroxy-5-(hydroxymethyl)-5H,6H,7H,8H-imidazo[1,2-a]pyridin-2-yl]butanamide (Compound 10)]	6.96	7.67	4.18	140	1480	11800	1050
CC(C)(C)CCc1cn2c(n1)C(O)C(O)C(O)C2CO (centres undefined) [2-(3,3-dimethylbutyl)-5-(hydroxymethyl)-5H,6H,7H,8H-imidazo[1,2-a]pyridine-6,7,8-triol (Compound 3)]	5.34	4.26	5.34	79	12800	350	3420
OCC1C(O)C(O)C(O)c2nccn21 (centres undefined) [5-(hydroxymethyl)-5H,6H,7H,8H-imidazo[1,2-a]pyridine-6,7,8-triol (Compound 1)]	91.6	79.2	33.1	220	7290	230	98500

Further compounds by falling IC50 (Prunasin hydrolase), results first:

IC50 ([1]; pH 5.2) [nM]	IC50 ([1]; pH 7) [nM]	Ki [2] [nM]	IC50 (Prunasin hydrolase) [nM]	IC50 (Alpha-galactosidase) [nM]	IC50 (Beta-galactosidase) [nM]	IC50 (Alpha-glucosidase MAL12) [nM]	Compound
2.97	3.62	1.17	78	4900	92	300	COc1ccc(CCCc2cn3c(n2)C(O)C(O)C(O)C3CO)cc1 (centres undefined) [5-(hydroxymethyl)-2-[3-(4-methoxyphenyl)propyl]-5H,6H,7H,8H-imidazo[1,2-a]pyridine-6,7,8-triol (Compound 6)]
3.71	2.04	3.19	58	16100	190	570	OCC1C(O)C(O)C(O)c2nc(CCc3ccccc3)cn21 (centres undefined) [5-(hydroxymethyl)-2-(2-phenylethyl)-5H,6H,7H,8H-imidazo[1,2-a]pyridine-6,7,8-triol (Compound 2)]
5.44	4.73	1.46	42	4480	100	280	Cc1ccc(CCCc2cn3c(n2)C(O)C(O)C(O)C3CO)cc1 (centres undefined) [5-(hydroxymethyl)-2-[3-(4-methylphenyl)propyl]-5H,6H,7H,8H-imidazo[1,2-a]pyridine-6,7,8-triol (Compound 5)]
5.27	5.11	3.62	42	1660		6	OCC1C(O)C(O)C(O)c2nc(CCCc3ccc(-c4ccccc4)cc3)cn21 (centres undefined) [5-(hydroxymethyl)-2-[3-(4-phenylphenyl)propyl]-5H,6H,7H,8H-imidazo[1,2-a]pyridine-6,7,8-triol (Compound 7)]
6.23	4.75	3.48	31	3750	230	730	OCC1C(O)C(O)C(O)c2nc(CCCc3ccc(F)cc3)cn21 (centres undefined) [2-[3-(4-fluorophenyl)propyl]-5-(hydroxymethyl)-5H,6H,7H,8H-imidazo[1,2-a]pyridine-6,7,8-triol (Compound 9)]
8.42	7.8	1.93	4	11400	1	52	OCC1C(O)C(O)C(O)c2nc(CCCc3ccc(C4CCCCC4)cc3)cn21 (centres undefined) [2-[3-(4-cyclohexylphenyl)propyl]-5-(hydroxymethyl)-5H,6H,7H,8H-imidazo[1,2-a]pyridine-6,7,8-triol (Compound 8)]

Reference: BindingDB's records for doi:10.1002/cbic.201300197 (Nankai University, 2013)
